# Assay results from patent US20250145585A1, “HETEROCYCLIC INHIBITORS OF IGF-1R FOR TREATMENT OF DISEASE” (HORIZON THERAPEUTICS IRELAND DAC, priority 2023, published 2025).
# Biological target: T1, IGF-1R (Homo sapiens, UniProt P08069)
# T1 construct: expressed in transfected cells
# Assay: Example B-1: IGF-1R Assay (PC3 cells stimulated with IGF1, AlphaLISA on cell lysates)
# Format: cell-based
# Conditions: compound two hours, IGF1 200 ng/mL for 30 min, read-out: IC50, Biological Activity against IGF-1R (Table B1)
# In short: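 IC50 from AlphaLISA read-out of lysed PC3 cells, percent inhibition normalized between vehicle and EC80 controls. Before lysis, cells had 2 h serum-free starvation, 2 h exposure to compound in 3× dilution series, and 30 min IGF1 stimulation at final 200 ng/mL.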
# T1 sequence (P08069 31-1367): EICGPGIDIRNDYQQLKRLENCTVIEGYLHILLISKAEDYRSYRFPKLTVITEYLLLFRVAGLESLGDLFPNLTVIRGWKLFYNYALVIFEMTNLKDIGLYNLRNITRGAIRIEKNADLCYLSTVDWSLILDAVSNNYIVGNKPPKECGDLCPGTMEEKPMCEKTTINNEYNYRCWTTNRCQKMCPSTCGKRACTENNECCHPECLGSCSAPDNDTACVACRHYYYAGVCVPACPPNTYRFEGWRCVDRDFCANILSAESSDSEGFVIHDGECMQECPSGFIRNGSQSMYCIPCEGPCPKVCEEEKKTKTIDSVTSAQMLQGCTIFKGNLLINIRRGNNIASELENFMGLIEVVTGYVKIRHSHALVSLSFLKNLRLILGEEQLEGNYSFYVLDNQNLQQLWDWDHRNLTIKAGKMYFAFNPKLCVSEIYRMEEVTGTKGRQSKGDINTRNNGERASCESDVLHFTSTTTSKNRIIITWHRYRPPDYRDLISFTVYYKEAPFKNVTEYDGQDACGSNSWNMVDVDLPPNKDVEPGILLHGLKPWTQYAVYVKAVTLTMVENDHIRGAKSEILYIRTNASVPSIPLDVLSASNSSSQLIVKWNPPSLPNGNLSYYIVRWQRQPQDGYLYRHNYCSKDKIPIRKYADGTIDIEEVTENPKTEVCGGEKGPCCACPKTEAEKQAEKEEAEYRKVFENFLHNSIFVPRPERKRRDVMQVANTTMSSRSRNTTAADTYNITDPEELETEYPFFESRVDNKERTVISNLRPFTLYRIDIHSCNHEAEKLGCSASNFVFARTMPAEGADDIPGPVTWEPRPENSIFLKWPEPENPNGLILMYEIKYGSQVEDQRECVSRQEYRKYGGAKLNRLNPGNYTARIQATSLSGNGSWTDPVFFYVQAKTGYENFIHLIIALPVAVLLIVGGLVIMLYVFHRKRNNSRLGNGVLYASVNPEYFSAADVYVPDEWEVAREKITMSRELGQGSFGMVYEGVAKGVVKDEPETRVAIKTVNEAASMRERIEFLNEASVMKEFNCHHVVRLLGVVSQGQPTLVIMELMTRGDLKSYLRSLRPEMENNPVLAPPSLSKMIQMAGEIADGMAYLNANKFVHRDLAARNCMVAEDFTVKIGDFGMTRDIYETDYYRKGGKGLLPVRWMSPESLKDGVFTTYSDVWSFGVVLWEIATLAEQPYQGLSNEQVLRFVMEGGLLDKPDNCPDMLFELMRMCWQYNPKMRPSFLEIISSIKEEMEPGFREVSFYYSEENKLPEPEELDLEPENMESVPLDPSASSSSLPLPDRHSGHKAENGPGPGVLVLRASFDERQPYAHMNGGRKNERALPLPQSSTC
row,IC50 [nM],Structure (SMILES)
1,500 to 2000,"CC(C)Nc1cc(CN2C(=O)N(c3ccc(SC(F)(F)F)cc3)C(=O)C2(C)C)ncn1 [Compound 379, 1-((6-(isopropylamino)pyrimidin-4-yl)methyl)-5,5-dimethyl-3-(4-((trifluoromethyl)thio)phenyl) imidazolidine-2,4-dione]"
2,≤ 500,"CC1(C)C(=O)N(c2ccc(SC(F)(F)F)cc2)C(=O)N1Cc1ccnc(NCC(F)F)c1 [Compound 315, 1-((2-((2,2-difluoroethyl)amino)pyridin-4-yl)methyl)-5,5-dimethyl-3-(4-((trifluoromethyl)thio)phenyl) imidazolidine-2,4-dione]"
3,≤ 500,"CC1(C)C(=O)N(c2ccc(SC(F)(F)F)cc2)C(=O)N1Cc1ccnc(NC2CCC2)c1 [Compound 378, 1-((2-(cyclobutylamino)pyridin-4-yl)methyl)-5,5-dimethyl-3-(4-((trifluoromethyl)thio)phenyl) imidazolidine-2,4-dione]"
4,≤ 500,"CC1(C)C(=O)N(c2ccc(SC(F)(F)F)cc2)C(=O)N1Cc1ccnc(Nc2ncccn2)c1 [Compound 399, 5,5-dimethyl-1-((2-(pyrimidin-2-ylamino)pyridin-4-yl)methyl)-3-(4-((trifluoromethyl)thio)phenyl) imidazolidine-2,4-dione]"
5,500 to 2000,"CC1(C)C(=O)N(c2ccc(SC(F)(F)F)cc2)C(=O)N1Cc1ccnc(NCC(F)(F)F)c1 [Compound 313, 5,5-dimethyl-1-((2-((2,2,2-trifluoroethyl)amino)pyridin-4-yl)methyl)-3-(4-((trifluoromethyl)thio)phenyl) imidazolidine-2,4-dione]"
6,≤ 500,"CC(C)Nc1cc(CN2C(=O)N(c3ccc(SC(F)(F)F)cc3)C(=O)C2(C)C)c(F)cn1 [Compound 384, 1-((5-fluoro-2-(isopropylamino)pyridin-4-yl)methyl)-5,5-dimethyl-3-(4-((trifluoromethyl)thio)phenyl) imidazolidine-2,4-dione]"
7,≤ 500,"Cc1ccc(NC(=O)Nc2cc(CN3C(=O)N(c4ccc(SC(F)(F)F)cc4)C(=O)C3(C)C)ccn2)cc1 [Compound 371, 1-(4-((5,5-dimethyl-2,4-dioxo-3-(4-((trifluoromethyl)thio)phenyl)imidazolidin-1-yl)methyl)pyridin-2-yl)-3-(p-tolyl)urea]"
8,500 to 2000,"CC1(C)C(=O)N(c2ccc(SC(F)(F)F)cc2)C(=O)N1Cc1ccnc(NCc2ncc[nH]2)c1 [Compound 312, 1-((2-(((1H-imidazol-2-yl)methyl)amino)pyridin-4-yl)methyl)-5,5-dimethyl-3-(4-((trifluoromethyl)thio)phenyl) imidazolidine-2,4-dione]"
9,> 10000,"CC1(C)C(=O)N(c2ccc(SC(F)(F)F)cc2)C(=O)N1Cc1ccnc(NC2COC2)c1 [Compound 314, 5,5-dimethyl-1-((2-(oxetan-3-ylamino)pyridin-4-yl)methyl)-3-(4-((trifluoromethyl)thio)phenyl) imidazolidine-2,4-dione]"
10,≤ 500,"CC1(C)C(=O)N(c2ccc(SC(F)(F)F)cc2)C(=O)N1Cc1ccnc(NC(=O)Nc2ccccc2F)c1 [Compound 375, 1-(4-((5,5-dimethyl-2,4-dioxo-3-(4-((trifluoromethyl)thio)phenyl)imidazolidin-1-yl)methyl)pyridin-2-yl)-3-(2-fluorophenyl)urea]"
11,≤ 500,"CC1(C)CNc2cc(N3C(=O)N(Cc4ccnc(N)c4)C(C)(C)C3=O)ccc21 [Compound 401, 1-((2-aminopyridin-4-yl)methyl)-3-(3,3-dimethylindolin-6-yl)-5,5-dimethylimidazolidine-2,4-dione]"
12,2000 to 10000,"Cc1c[nH]c2ncc(CN3C(=O)N(c4ccc(SC(F)(F)F)cc4)C(=O)C3(C)C)cc12 [Compound 406, 5,5-dimethyl-1-((3-methyl-1H-pyrrolo[2,3-b]pyridin-5-yl)methyl)-3-(4-((trifluoromethyl)thio)phenyl) imidazolidine-2,4-dione]"

# Continued, compound first:
row,Structure (SMILES),IC50 [nM]
1,"CC1(C)C(=O)N(c2ccc(CC(F)(F)F)cc2)C(=O)N1Cc1ccnc(N)c1 [Compound 94, 1-((2-aminopyridin-4-yl)methyl)-5,5-dimethyl-3-(4-(2,2,2-trifluoroethyl)phenyl)imidazolidine-2,4-dione]",≤ 500
2,"CC1(C)C(=O)N(c2ccc(S(F)(F)(F)(F)F)cc2)C(=O)N1Cc1ccnc(N)c1 [Compound 179, 1-((2-aminopyridin-4-yl)methyl)-5,5-dimethyl-3-(4-(pentafluoro-16-sulfanyl)phenyl)imidazolidine-2,4-dione]",≤ 500
3,"Nc1cc(CN2C(=O)N(c3ccc(SC(F)(F)F)cc3)C(=O)[C@@H]2C2CCCCC2)ccn1 [Compound 296, (S)-1-((2-aminopyridin-4-yl)methyl)-5-cyclohexyl-3-(4-((trifluoromethyl)thio)phenyl)imidazolidine-2,4-dione]",> 10000
4,"CC1(C)C(=O)N(c2ccc(SC(F)(F)F)cc2)C(=O)N1Cc1ccnc(NC(=O)NC2CCN(CC(F)(F)F)CC2)c1 [Compound 307, 1-(4-((5,5-dimethyl-2,4-dioxo-3-(4-((trifluoromethyl)thio)phenyl)imidazolidin-1-yl)methyl)pyridin-2-yl)-3-(1-(2,2,2-trifluoroethyl)piperidin-4-yl)urea]",≤ 500
5,"CC(C)(C)c1ccc(N2C(=O)N(Cc3ccnc(NC4COC4)c3)C(C)(C)C2=O)cc1 [Compound 275, 3-(4-(tert-butyl)phenyl)-5,5-dimethyl-1-((2-(oxetan-3-ylamino)pyridin-4-yl)methyl)imidazolidine-2,4-dione]",≤ 500
6,"CC(C)Nc1cc(CN2C(=O)N(c3ccc(S(F)(F)(F)(F)F)cc3)C(=O)C2(C)C)ccn1 [Compound 178, 1-((2-(isopropylamino)pyridin-4-yl)methyl)-5,5-dimethyl-3-(4-(pentafluoro-16-sulfanyl)phenyl)imidazolidine-2,4-dione]",≤ 500
7,"CC(C)(C)c1ccc(N2C(=O)N(Cc3ccnc4[nH]cc(Cl)c34)C(C)(C)C2=O)cc1 [Compound 6, 3-(4-(tert-butyl)phenyl)-1-((3-chloro-1H-pyrrolo[2,3-b]pyridin-4-yl)methyl)-5,5-dimethylimidazolidine-2,4-dione]",≤ 500
8,"CC1(C)C(=O)N(c2ccc(C3(C(F)(F)F)CC3)cc2)C(=O)N1Cc1ccnc(N)c1 [Compound 83, 1-((2-aminopyridin-4-yl)methyl)-5,5-dimethyl-3-(4-(1-(trifluoromethyl)cyclopropyl)phenyl)imidazolidine-2,4-dione]",≤ 500
9,"CC1(C)C(=O)N(c2ccc(C3(C(F)(F)F)CC3)cc2)C(=O)N1Cc1ccnc2[nH]cc(Br)c12 [Compound 8, 1-((3-bromo-1H-pyrrolo[2,3-b]pyridin-4-yl)methyl)-5,5-dimethyl-3-(4-(1-(trifluoromethyl)cyclopropyl)phenyl)imidazolidine-2,4-dione]",≤ 500
10,"CC(C)Nc1cc(CN2C(=O)N(c3ccc(C4(C)CC(F)(F)C4)cc3)C(=O)C2(C)C)ccn1 [Compound 116, 3-(4-(3,3-difluoro-1-methylcyclobutyl)phenyl)-1-((2-(isopropylamino)pyridin-4-yl)methyl)-5,5-dimethylimidazolidine-2,4-dione]",≤ 500
11,"CC(C)Nc1cc(CN2C(=O)N(c3ccc([Si](C)(C)C)cc3)C(=O)C2(C)C)ccn1 [Compound 89, 1-((2-(isopropylamino)pyridin-4-yl)methyl)-5,5-dimethyl-3-(4-(trimethylsilyl)phenyl)imidazolidine-2,4-dione]",≤ 500
12,"COCC(C)Nc1cc(CN2C(=O)N(c3ccc(C(C)(C)C)cc3)C(=O)C2(C)C)ccn1 (stereo not shown) [Compound 265, 3-(4-(tert-butyl)phenyl)-1-((2-((1-methoxypropan-2-yl)amino)pyridin-4-yl)methyl)-5,5-dimethylimidazolidine-2,4-dione]",≤ 500
13,"CC1(C)CC(Nc2cc(CN3C(=O)N(c4ccc(C5(C(F)(F)F)CC5)cc4)C(=O)C3(C)C)ccn2)CCO1 (stereo not shown) [Compound 113, 1-((2-((2,2-dimethyltetrahydro-2H-pyran-4-yl)amino)pyridin-4-yl)methyl)-5,5-dimethyl-3-(4-(1-(trifluoromethyl)cyclopropyl)phenyl) imidazolidine-2,4-dione]",≤ 500
14,"CC1(C)Cc2cc(CN3C(=O)N(c4ccc(SC(F)(F)F)cc4)C(=O)C3(C)C)cnc2N1 [Compound 14, 1-((2,2-dimethyl-2,3-dihydro-1H-pyrrolo[2,3-b]pyridin-5-yl)methyl)-5,5-dimethyl-3-(4-((trifluoromethyl)thio)phenyl)imidazolidine-2,4-dione]",> 10000
15,"CC(C)[C@H]1C(=O)N(c2ccc(SC(F)(F)F)cc2)C(=O)N1Cc1ccnc(N)c1 [Compound 290, (S)-1-((2-aminopyridin-4-yl)methyl)-5-isopropyl-3-(4-((trifluoromethyl)thio)phenyl)imidazolidine-2,4-dione]",> 10000
16,"CC1(C)C(=O)N(c2ccc(SC(F)(F)F)cc2)C(=O)N1Cc1ccnc2[nH]c(C3CC3)cc12 [Compound 15, 1-((2-cyclopropyl-1H-pyrrolo[2,3-b]pyridin-4-yl)methyl)-5,5-dimethyl-3-(4-((trifluoromethyl)thio)phenyl)imidazolidine-2,4-dione]",> 10000
17,"CC(C)Nc1cc(CN2C(=O)N(c3ccc(I)cc3)C(=O)C2(C)C)ccn1 [Compound 92, 3-(4-iodophenyl)-1-((2-(isopropylamino)pyridin-4-yl)methyl)-5,5-dimethylimidazolidine-2,4-dione]",500 to 2000
18,"CC1(C)C(=O)N(c2ccc(SC(F)(F)F)cc2)C(=O)N1Cc1ccnc2[nH]cc(Cl)c12 [Compound 5, 1-((3-chloro-1H-pyrrolo[2,3-b]pyridin-4-yl)methyl)-5,5-dimethyl-3-(4-((trifluoromethyl)thio)phenyl)imidazolidine-2,4-dione]",≤ 500
19,"CC1(C)C(=O)N(c2ccc(C3(C(F)(F)F)CC3)cc2)C(=O)N1Cc1ccnc2[nH]ccc12 [Compound 7, 1-((1H-pyrrolo[2,3-b]pyridin-4-yl)methyl)-5,5-dimethyl-3-(4-(1-(trifluoromethyl)cyclopropyl)phenyl)imidazolidine-2,4-dione]",≤ 500
